Among the data in patent US20180007908A1, “Pesticidal Mixtures” (BASF SE, priority 2007, published 2018) are inhibition values, retold here.

Holding throughout (assay type): cell-based
Assay [1] concerns Pyricularia oryzae. Briefly: microbe, parasite or virus in culture. The settings on record: 168 h, read-out: Observed activity (%).
Assay [2] deals with Botrytis cinerea. Briefly: Use Example No. 6: activity against gray mold Botrytis cinerea in the microtiter test (Botrci). The settings on record: 168 h, day 7 post-inoculation, efficacy as % of untreated control, read-out: Observed activity (%).
The subject of assay [3] is Pyricularia oryzae. Briefly: microbe, parasite or virus in culture. The settings on record: 168 h, read-out: Observed activity (%). This is another data set of the same source.

Take `N#Cc1nn(-c2c(Cl)cc(C(F)(F)F)cc2Cl)c(N)c1[S+]([O-])C(F)(F)F` (stereo not drawn) [fipronil]: the inhibition at 2 ppm in assay [1] turned out to be 5%.
`COC(=O)N(OC)c1ccccc1COc1ccn(-c2ccc(Cl)cc2)n1` [pyraclostrobin]: in assay [2], the inhibition at 0.016 ppm is 4%. Also, in assay [3], the inhibition at 0.001 ppm is 31%.
